Where a name gives a salt, the structure may show the parent alone.
Tested on: kidney
Assay: Transcriptional profiling on Affymetrix GeneChips, single dose, naïve mice: kidney
Assay type: in vivo, C57BL/6 mice
Conditions: 100MMF-vs-Veh
Description: Treated mice were sacrificed at 2, 7, or 12 hours. Tissues (liver, spleen, kidney, jejunum, cortex, hippocampus, striatum and whole blood) were collected and analyzed by transcriptional profiling on mouse Affymetrix GeneChips.
Tissues (liver, spleen, kidney, jejunum, cortex, hippocampus, striatum and whole blood) were collected and analyzed by transcriptional profiling on mouse Affymetrix GeneChips.
Animals were exposed to CO2 and whole blood collected via cardiac puncture. Two 100 μl aliquots of whole blood were collected in 1.5 mL microcentrifuge tubes and snap frozen in liquid nitrogen. Peripheral (liver, spleen, kidney and jejunum) and CNS brain (cerebellum, hippocampus, striatum and cortex) tissues were harvested and snap frozen in liquid nitrogen, with special care taken to collect tissues of similar size and from the same location. All samples were stored at −80° C. until RNA extraction was conducted.
For RNA preparation, frozen tissues were placed in 2 mL RNAse-free 96-well blocks with 1.5 mL QIAzol Lysis Reagent (QIAgen) and a 3.2 mm stainless steel bead (BioSpec Products, Bartlesville, Okla.). Tissues were disrupted for four cycles of 45 seconds in a Mini-Beadbeater (Biospec Products). RNA was extracted in chloroform and the aqueous phase was mixed with an equal volume of 70% ethanol. Extracted RNA was applied to RNeasy 96 plates and purified by the spin method according to the manufacturer's protocol (RNeasy 96 Universal Tissue Protocol, QIAgen, Hilden Germany).
Automated sample amplifications and biotin labelings were carried out using the NuGEN Ovation RNA Amplification system V2 (Cat #3100), Ovation WB reagent (Cat #1300) and Encore Biotin module (Cat #4200) (NuGEN Technologies, Inc, San Carlos, Calif.) according to manufacturer's recommendations using an Arrayplex automated liquid handler (Beckman Coulter, Indianapolis, Ind.). Two micrograms of biotin labeled sscDNA probe were hybridized to Affymetrix GeneChip Affymetrix HT_MG-430_PM plate arrays with modified conditions as described in Allaire et al. Washing and staining of the hybridized arrays were completed as described in the GeneChip Expression analysis technical manual for HT plate arrays using the Genechip® Array Station (Affymetrix, Santa Clara, Calif.) with modifications as described in Allaire et al. The processed GeneChip® plate arrays were scanned using GeneTitan scanner (Affymetrix, Santa Clara, Calif.).
Affymetrix scans were subject to quality control (QC) measures. These tests included a visual inspection of the distribution of raw signal intensities and an assessment of RNA degradation, relative log expression (RLE), and normalized unsealed standard error (NUSE). All sample scans that passed these QC metrics were included in the analysis.
All CEL files were subjected to GC-content-based Robust Multi-array Average (GCRMA) normalization (version 2.20.0) (Irizarry R A, et al. Nucleic Acids Res 2003; 31:e15; Li C, et al. Genome Biol 2001; 2:[…]0032). Expression levels were log (base 2) transformed.
All calculations and analyses were carried out using R (version 2.11.1) and Bioconductor computational tools (Gentleman R. Springer Science+Business Media 2005).

COC(=O)/C=C/C(=O)O [MMF, monomethyl fumarate]
FC 1456319_PM_at (2 h): −2.06 | FC 1456955_PM_at (2 h): 1.60 | FC 1457189_PM_at (2 h): −1.70 | FC 1457586_PM_at (2 h): 1.61 | FC 1458096_PM_at (2 h): −1.87 | FC 1458798_PM_at (2 h): −1.56 | FC 1459091_PM_at (2 h): 2.78 | FC 1459358_PM_at (2 h): 1.56 | FC 1459516_PM_at (2 h): 1.71 | FC 1459774_PM_at (2 h): 1.63 | FC A330023F24Rik 1460033_PM_at (2 h): 1.50 | FC AA986715 1459467_PM_at (2 h): 1.68 | FC Akr1c19 (1455454_PM_at) (2 h): 1.56 | FC Ankrd11 1458452_PM_at (2 h): 1.56 | FC Arl5b 1455166_PM_at (2 h): 1.64 | FC BC038331 1458295_PM_at (2 h): −1.57 | FC Bcl7a 1458503_PM_at (2 h): −1.54 | FC Cggbp1 1455658_PM_at (2 h): 1.51 | FC Gclc (1455959_PM_s_at) (2 h): 1.53 | FC LOC676974 1456909_PM_at (2 h): 1.57 | FC LOC100504796 1457129_PM_at (2 h): −1.55 | FC Lonrf1 1455665_PM_at (2 h): 1.98 | FC Nufip2 1455387_PM_at (2 h): 1.61 | FC Per3 1458176_PM_at (2 h): −1.57 | FC Phf13 1455175_PM_at (2 h): 1.51 | FC Pkp2 1460511_PM_at (2 h): 1.67 | FC Ptprg 1456070_PM_at (2 h): −2.31 | FC Snx29 1456922_PM_at (2 h): −1.74 | FC Tnfsf10 1459913_PM_at (2 h): −1.60 | FC Trib3 1456225_PM_x_at (2 h): 1.56 | FC Zfp295 1457552_PM_at (2 h): 1.74 | FC 1110032F04Rik 1456509_PM_at (7 h): 4.65 | FC 1200003I10Rik /// 1200015M12Rik /// A130040M12Rik /// E430024C06Rik 1427932_PM_s_at (7 h): 1.63 | FC 1300002K09Rik 1453234_PM_at (7 h): 1.98 | FC 1444265_PM_at (7 h): 1.53 | FC 1445668_PM_at (7 h): 1.55 | FC 1447396_PM_at (7 h): −1.73 | FC 1457594_PM_at (7 h): −1.52 | FC 1459091_PM_at (7 h): 3.52 | FC 2610034E01Rik 1460483_PM_at (7 h): 1.56 | FC Abcc4 1443870_PM_at (7 h): 2.09 | FC Abhd15 1453474_PM_at (7 h): 1.64 | FC Acsl4 1451828_PM_a_at (7 h): 1.78 | FC Agps 1434919_PM_at (7 h): −1.68 | FC Agxt2l1 1452975_PM_at (7 h): −1.74 | FC Akr1b8 (1448894_PM_at) (7 h): 1.86 | FC Akr1c19 (1455454_PM_at) (7 h): 1.97 | FC Alas1 1424126_PM_at (7 h): 1.51 | FC Alcam 1426300_PM_at (7 h): 2.66 | FC Alcam 1426301_PM_at (7 h): 2.09 | FC Alcam 1437467_PM_at (7 h): 2.00 | FC Aldh1a7 (1418601_PM_at) (7 h): 2.16 | FC Aox1 (1419435_PM_at) (7 h): 2.50 | FC Asns 1433966_PM_x_at (7 h): 2.13 | FC Asns 1451095_PM_at (7 h): 2.23 | FC Atp13a3 1442145_PM_at (7 h): 1.52 | FC BC037032 1444682_PM_at (7 h): 1.69 | FC Bcat1 1430111_PM_a_at (7 h): −1.59 | FC Bcat1 1450871_PM_a_at (7 h): −1.83 | FC Bcat1 1455699_PM_at (7 h): −2.29 | FC Blvrb (1451386_PM_at) (7 h): 1.83 | FC Btg1 1442018_PM_at (7 h): 1.60 | FC Cbr1 (1460196_PM_at) (7 h): 1.58 | FC Cbr3 (1427912_PM_at) (7 h): 9.54 | FC Cenpe 1435005_PM_at (7 h): −1.60 | FC Cml3 1421609_PM_a_at (7 h): −1.64 | FC Copg2as2 1427123_PM_s_at (7 h): 1.56 | FC Ctps 1416563_PM_at (7 h): 1.57 | FC Cul9 1439866_PM_at (7 h): −1.52 | FC Cyp51 1422533_PM_at (7 h): −1.54 | FC Cyp51 1422534_PM_at (7 h): −1.59 | FC D16Ertd778e 1445089_PM_at (7 h): −1.87 | FC D330040H18Rik 1444432_PM_at (7 h): 1.77 | FC Dbp (1418174_PM_at) (7 h): −1.73 | FC Dbp (1438211_PM_s_at) (7 h): −1.63 | FC Ddit4l 1439332_PM_at (7 h): 1.83 | FC Ddit4l 1444139_PM_at (7 h): 1.85 | FC Ddit4l 1451751_PM_at (7 h): 2.62 | FC Dnase2a (1430135_PM_at) (7 h): 2.20 | FC Dusp5 1437199_PM_at (7 h): 1.74 | FC Eif4ebp1 1434976_PM_x_at (7 h): 1.56 | FC Endou 1449937_PM_at (7 h): 1.52 | FC Esr1 1460591_PM_at (7 h): −1.54 | FC Fam107a 1435918_PM_at (7 h): −1.77 | FC Fbxl2 1428427_PM_at (7 h): −1.68 | FC Fgf1 1441042_PM_at (7 h): −1.71 | FC Fgf1 1450869_PM_at (7 h): −1.76 | FC Fgfbp1 1419086_PM_at (7 h): 1.73 | FC Frem2 1457038_PM_at (7 h): −1.66 | FC G0s2 1448700_PM_at (7 h): 1.50 | FC G6pd2 /// G6pdx 1422327_PM_s_at (7 h): 1.86 | FC G6pdx (1448354_PM_at) (7 h): 1.75 | FC Gclc (1424296_PM_at) (7 h): 1.87 | FC Gclc (1455959_PM_s_at) (7 h): 1.81 | FC Gclm 1418627_PM_at (7 h): 1.64 | FC Gdf15 1418949_PM_at (7 h): 1.98 | FC Gimap3 1449220_PM_at (7 h): −1.51 | FC Gjb1 1448766_PM_at (7 h): 1.50 | FC Gk5 1436210_PM_at (7 h): 1.55 | FC Gm129 1435188_PM_at (7 h): −2.12 | FC Gm3776 /// Gsta1 /// Gsta2 1421041_PM_s_at (7 h): 1.63 | FC Gpr135 1441944_PM_s_at (7 h): 1.66 | FC Gpr135 1459274_PM_at (7 h): 1.53
